Assays:
[1] = target: T1, mGAT1 (Mus musculus, UniProt P31648); test: MS Binding Assay with NO 711 as marker; conditions: 100 μM inhibitor
[2] = target: T2, mGAT2 (Mus musculus, UniProt P31651); test: [3H]GABA uptake assay, mGAT2; assay type: cell-based; conditions: GABA uptake assay; read-out: mGAT2 IC50
T2 sequence (P31651 1-614): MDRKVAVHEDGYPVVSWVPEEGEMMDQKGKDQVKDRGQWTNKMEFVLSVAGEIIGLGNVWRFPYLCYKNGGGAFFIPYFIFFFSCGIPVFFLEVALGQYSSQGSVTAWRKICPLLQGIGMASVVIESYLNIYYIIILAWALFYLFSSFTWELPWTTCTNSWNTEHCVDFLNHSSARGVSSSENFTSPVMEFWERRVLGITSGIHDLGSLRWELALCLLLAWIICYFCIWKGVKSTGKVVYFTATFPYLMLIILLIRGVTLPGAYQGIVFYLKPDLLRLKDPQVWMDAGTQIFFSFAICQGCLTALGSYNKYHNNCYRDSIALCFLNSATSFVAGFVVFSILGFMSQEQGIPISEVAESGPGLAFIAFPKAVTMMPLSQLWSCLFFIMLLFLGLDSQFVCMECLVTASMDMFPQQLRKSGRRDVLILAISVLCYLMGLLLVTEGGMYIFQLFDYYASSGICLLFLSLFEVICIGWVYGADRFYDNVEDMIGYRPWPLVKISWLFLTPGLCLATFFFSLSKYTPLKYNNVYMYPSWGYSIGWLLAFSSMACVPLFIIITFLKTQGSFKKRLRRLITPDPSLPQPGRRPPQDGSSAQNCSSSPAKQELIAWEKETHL

[3] = target: T3, mGAT3 (Mus musculus, UniProt P31649); test: [3H]GABA uptake assay, mGAT3; assay type: cell-based; conditions: GABA uptake assay; read-out: mGAT3 IC50
T3 sequence (P31649 1-602): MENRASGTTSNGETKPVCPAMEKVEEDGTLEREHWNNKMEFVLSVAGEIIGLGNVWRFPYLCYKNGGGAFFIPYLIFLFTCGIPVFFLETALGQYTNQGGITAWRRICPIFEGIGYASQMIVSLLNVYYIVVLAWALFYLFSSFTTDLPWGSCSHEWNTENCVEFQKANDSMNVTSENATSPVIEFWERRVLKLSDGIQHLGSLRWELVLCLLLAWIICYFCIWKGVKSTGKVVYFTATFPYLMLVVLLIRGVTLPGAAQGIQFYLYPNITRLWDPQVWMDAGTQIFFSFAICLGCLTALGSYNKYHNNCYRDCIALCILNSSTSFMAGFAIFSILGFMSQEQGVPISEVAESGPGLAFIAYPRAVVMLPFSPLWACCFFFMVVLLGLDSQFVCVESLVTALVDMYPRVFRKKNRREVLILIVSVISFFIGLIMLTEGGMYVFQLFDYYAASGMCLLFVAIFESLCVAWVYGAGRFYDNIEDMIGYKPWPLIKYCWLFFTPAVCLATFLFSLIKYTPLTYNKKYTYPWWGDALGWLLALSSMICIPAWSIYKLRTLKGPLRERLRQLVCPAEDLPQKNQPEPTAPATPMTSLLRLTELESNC

[4] = target: T4, human butyrylcholinesterase (hBuChE) (Homo sapiens, UniProt P06276); test: biochemical; conditions: inhibitor concentration 1 μM; read-out: hBuChE % inh.
T4 construct: from human plasma was from Vivonics (Bedford, MA, USA); purchased Vivonics (Bedford, MA, USA); host or cells: human plasma

[5] = target: T1, mGAT1; test: [3H]GABA uptake assay, mGAT1; assay type: cell-based; conditions: GABA uptake assay; read-out: mGAT1 IC50
[6] = target: T5, eeAChE (Electrophorus electricus, UniProt O42275); test: Cholinesterase inhibition, Ellman's protocol, eeAChE; assay type: biochemical; conditions: read-out: eeAChE % inh.
T5 construct: purchased Sigma-Aldrich
Procedure: In vitro pharmacological assays.
The in vitro inhibitory activity toward cholinesterases (eeAChE, eqBuChE,
The target compounds were tested for their inhibitory potency against cholinesterases using
Ellman’s protocol[32] modified for 96-well microplates.
The stock solutions of the
target compounds were prepared in DMSO and diluted with water, giving the desired final
concentrations. The enzymes were prepared as 5 U/mL aqueous stock solutions and diluted
(AChE or BuChE) were added to the reaction mixture in the wells, containing 25 μL of the
target compound (in case of blank samples – water or water/DMSO mixture), 200 μL of 0.1
M phosphate buffer (pH = 8.0) and 20 μL of 5,5'-dithiobis-(2-nitrobenzoic acid) DTNB
All those reagents were preincubated for 5 min at 25 °C for the reactions with the
animal enzymes (eeAChE or eqBuChe) and 36 °C for the human enzyme ( hBuChE) tests. The
enzymatic reaction was initiated by the addition of 20 μL of substrate acetylthiocholine iodide
using the EnSpire multimode microplate reader (PerkinElmer, Waltham, MA, USA). Target
compounds were tested at the screening concentrations of 10 μM or 1 µM for inhibitory
potencies towards animal cholinesterases or human enzyme, respectively. Percent of enzyme
inhibition was calculated based on the formula 100 -(S/B)x100, where S and B were the
respective enzyme activities with and without the test compound, respectively. Compounds
with the enzyme inhibitory activities at 10 μM better than 50% ( eeAChE or eqBuChe) and at
were based on the absorbance measured at seven different inhibitor concentrations, then
percentages of enzymes’ inhibition were plotted against the applied inhibitor concentrations
using nonlinear regression (GraphPad Prism 9; GraphPad Software, San Diego, CA, USA).
All the experiments were performed in
a %inh. at an inhibitor concentration of 10 µM

[7] = target: T6, eqBuChE (Equus caballus, UniProt P81908); test: biochemical; conditions: means±SEM of at least three experiments
T6 construct: purchased Sigma-Aldrich

[8] = target: T7, human serotonin 5-HT6 receptor (Homo sapiens, UniProt P50406); test: cAMP 5-HT6 functional assay; assay type: cell-based; conditions: % of maximal antagonist response (SB258585 10^-5M); 22 nM serotonin
T7 construct: host or cells: 1321N1
Procedure: Functional assays for 5-HT6 receptor
Test compounds were dissolved in dimethyl sulfoxide (DMSO) at a concentration of 10 mM.
Serial dilutions were prepared in a 96-well microplate in assay buffer, and 8 concentrations
were tested. For the 5-HT6, adenylyl cyclase activity was monitored using cryopreserved
cells were resuspended in stimulation buffer (HBSS, 5 mM HEPES, 0.5 IBMX, and 0.1%
BSA at pH 7.4) at 2x10^5 cells/ml. The same volume (10 μl) of cell suspension was added to
the tested compounds. Samples were loaded onto a white opaque half-area 96-well
reference agonist for the 5-HT6 receptor. The agonist and antagonist were added
simultaneously. Cell stimulation was performed for 30 minutes at room temperature. After
incubation, cAMP measurements were performed with homogeneous TR-FRET immunoassay
using the LANCE Ultra cAMP kit (PerkinElmer, USA). The volume of 10 μl of EucAMP
Tracer Working Solution and 10 μl of ULight-anti-cAMP Tracer Working Solution were
added, mixed, and incubated for 1 h. The TR-FRET signal was read on an EnVision
microplate reader (PerkinElmer, USA). IC 50 and EC 50 were determined by nonlinear
regression analysis using GraphPad Prism 9.0 software.

[9] = tested on: Human neuroblastoma cells SH-SY5Y; test: MTT cell viability assay, SH-SY5Y; assay type: cell-based; conditions: 24 h, read-out: IC50 (MTT) ± SEM
Text: (§1) Human neuroblastoma cells SH-SY5Y and mouse microglial cells SIM-A9 were used to evaluate cell viability, intracellular RONS, and malondialdehyde (MDA; CAS No. 542–78-9).
(§2) SH-SY5y cells were cultivated in Dulbecco's modified Eagle's medium (DMEM; Biosera, Nuaille, France) supplemented with 10% fetal bovine serum (Biosera) and 1% penicillin-streptomycin antibiotic solution (Sigma-Aldrich, St. Louis, MO, USA). The culture medium for SIM-A9 cells was further supplemented with donor horse serum (Biosera). The cells were incubated at 37 °C in a CO2 incubator (BINDER CO2 incubator CB 160, Tuttlingen, Germany) and routinely passaged by trypsinization at 75 –85% confluence.
(§3) Colorimetric Cell Viability Assay
(§4) The toxicological indices IC 50 used in the present study were measured utilizing 3-(4,5-dimethylthiazol-2-yl)-2,5-diphenyl-tetrazolium bromide (MTT) reduction assay after (1 picture or pasted object on this page, not shown here)
(§5) 24 h incubation with tested compounds. […]
(§6) incubation, the cultivation medium containing serially diluted substances was aspirated and replaced with a fresh medium containing MTT at a concentration of 0.5 mg/mL and subsequently incubated at 37 °C for 1 h. […] Cell viability was assessed spectrophotometrically by the amount of formazan produced. Absorbance was measured at 570 nm with 650 nm reference wavelength on Spark (Tecan Group Ltd, Switzerland). […]

[10] = tested on: mouse microglial cells SIM-A9; test: MTT cell viability assay, SIM-A9; assay type: cell-based; conditions: SIM-A9, 24 h; read-out: IC50 (MTT) ± SEM
Text: as §1, §2, §3, §4, §5, §6

[11] = tested on: SH-SY5Y cells; test: Intracellular O2•-, DHE probe, SH-SY5Y; assay type: cell-based, human
[12] = tested on: SH-SY5Y cells; test: LC-MS determination of total MDA, SH-SY5Y; assay type: cell-based, human
[13] = tested on: SH-SY5Y cells; test: Intracellular RONS, DCFH-DA probe, SH-SY5Y; assay type: cell-based, human
[14] = tested on: SIM-A9 cells; test: Intracellular O2•-, DHE probe, SIM-A9; assay type: cell-based, mouse
[15] = tested on: SIM-A9 cells; test: LC-MS determination of total MDA, SIM-A9; assay type: cell-based, mouse
[16] = tested on: SIM-A9 cells; test: Intracellular RONS, DCFH-DA probe, SIM-A9; assay type: cell-based, mouse

T4 sequence (P06276 29-602): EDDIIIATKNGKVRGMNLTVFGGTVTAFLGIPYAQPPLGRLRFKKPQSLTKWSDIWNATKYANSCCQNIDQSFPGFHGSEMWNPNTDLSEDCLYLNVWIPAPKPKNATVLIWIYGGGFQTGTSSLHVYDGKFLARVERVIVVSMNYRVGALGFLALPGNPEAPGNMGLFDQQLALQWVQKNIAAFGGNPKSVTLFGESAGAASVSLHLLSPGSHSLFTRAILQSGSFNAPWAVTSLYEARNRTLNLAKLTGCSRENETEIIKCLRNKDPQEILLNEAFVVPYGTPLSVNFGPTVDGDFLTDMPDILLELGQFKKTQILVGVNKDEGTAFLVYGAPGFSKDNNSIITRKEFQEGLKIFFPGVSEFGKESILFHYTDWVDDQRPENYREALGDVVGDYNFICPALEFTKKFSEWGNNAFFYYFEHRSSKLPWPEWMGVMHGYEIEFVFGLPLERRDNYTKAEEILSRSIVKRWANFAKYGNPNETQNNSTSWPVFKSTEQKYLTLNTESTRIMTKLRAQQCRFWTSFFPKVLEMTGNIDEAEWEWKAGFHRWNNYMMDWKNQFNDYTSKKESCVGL
T5 sequence (O42275 24-633): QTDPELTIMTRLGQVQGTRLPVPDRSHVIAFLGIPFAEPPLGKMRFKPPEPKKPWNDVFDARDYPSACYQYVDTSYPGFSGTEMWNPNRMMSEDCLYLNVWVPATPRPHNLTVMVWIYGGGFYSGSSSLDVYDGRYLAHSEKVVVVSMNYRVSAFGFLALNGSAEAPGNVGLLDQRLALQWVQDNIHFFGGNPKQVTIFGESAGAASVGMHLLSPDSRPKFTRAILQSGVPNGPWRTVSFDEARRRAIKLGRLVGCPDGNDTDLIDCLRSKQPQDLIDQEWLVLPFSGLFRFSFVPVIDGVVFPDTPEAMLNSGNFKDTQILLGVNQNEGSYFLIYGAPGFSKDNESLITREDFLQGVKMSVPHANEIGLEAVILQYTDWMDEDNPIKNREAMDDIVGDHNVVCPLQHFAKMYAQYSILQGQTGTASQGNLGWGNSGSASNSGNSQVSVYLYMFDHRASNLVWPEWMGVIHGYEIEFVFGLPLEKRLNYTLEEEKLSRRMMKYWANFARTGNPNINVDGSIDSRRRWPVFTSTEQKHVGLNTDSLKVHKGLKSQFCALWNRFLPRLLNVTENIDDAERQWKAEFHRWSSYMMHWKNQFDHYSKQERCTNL
T6 sequence (P81908 whole entry): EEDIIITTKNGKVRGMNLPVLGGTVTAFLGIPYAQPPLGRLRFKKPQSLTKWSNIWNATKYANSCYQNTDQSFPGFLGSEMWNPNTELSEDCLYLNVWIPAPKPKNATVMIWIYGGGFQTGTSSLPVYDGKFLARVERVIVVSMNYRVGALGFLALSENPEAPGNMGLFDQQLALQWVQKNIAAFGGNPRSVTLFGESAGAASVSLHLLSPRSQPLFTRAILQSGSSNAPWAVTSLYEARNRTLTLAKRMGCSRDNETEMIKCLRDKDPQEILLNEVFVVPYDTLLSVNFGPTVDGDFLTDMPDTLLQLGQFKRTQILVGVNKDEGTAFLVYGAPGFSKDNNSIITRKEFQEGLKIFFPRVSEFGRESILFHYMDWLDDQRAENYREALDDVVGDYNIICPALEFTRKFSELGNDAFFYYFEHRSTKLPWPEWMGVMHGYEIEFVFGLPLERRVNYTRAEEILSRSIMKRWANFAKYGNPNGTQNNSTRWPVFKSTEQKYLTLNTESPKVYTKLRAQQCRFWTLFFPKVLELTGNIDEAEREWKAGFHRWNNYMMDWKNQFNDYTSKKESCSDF
T7 sequence (P50406 whole entry): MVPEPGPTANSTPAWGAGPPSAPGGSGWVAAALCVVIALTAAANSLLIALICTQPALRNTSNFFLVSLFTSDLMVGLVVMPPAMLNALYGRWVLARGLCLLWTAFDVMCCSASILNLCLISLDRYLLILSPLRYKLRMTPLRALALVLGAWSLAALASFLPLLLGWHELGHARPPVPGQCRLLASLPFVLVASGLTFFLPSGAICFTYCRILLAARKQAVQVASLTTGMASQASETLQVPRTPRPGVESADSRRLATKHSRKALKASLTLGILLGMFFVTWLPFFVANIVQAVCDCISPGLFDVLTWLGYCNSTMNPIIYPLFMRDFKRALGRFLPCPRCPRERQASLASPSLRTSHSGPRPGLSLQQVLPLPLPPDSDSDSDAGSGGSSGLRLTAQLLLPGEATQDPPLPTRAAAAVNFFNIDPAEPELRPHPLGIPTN

With `CC(C)(C)c1cccc(CNC[C@@H](O)[C@H](Cc2ccccc2)NC2c3ccccc3-c3ccccc32)c1` [Compound 4] the “percent of remaining NO711 binding, mGAT1” value [1] was 91%, the IC50 [2] was 26.3 µM and the IC50 [3] was 8.91 ± 1.03 µM. For the same molecule, the inhibition at 1 µM [4] was 68%, the IC50 [5] was 14.8 µM and the inhibition at 10 µM [6] was less than 10%. For the same molecule, the IC50 [7] was 0.69 ± 0.04 µM.

In the case of `O[C@@H](CNCC1CCCCC1)[C@H](Cc1ccccc1)NC1c2ccccc2-c2ccccc21` [Compound 5], the “percent of remaining NO711 binding, mGAT1” value [1] is reported as 72%, the IC50 [2] is reported as 10.7 µM and the IC50 [3] is reported as 11.5 µM. It also gave an inhibition at 1 µM [4] of 76.5%, an inhibition at 10 µM [6] of 19.9% and an IC50 [7] of 0.96 ± 0.03 µM.

With `COc1ccc(NS(=O)(=O)c2ccc(I)cc2)cc1N1CCN(C)CC1` [SB258585, reference compound] the “5-HT6 antagonist mode E max %” value [8] was 100%.

For `CC(C)(C)OO` [tBHP], the IC50 [9] was 19.9 ± 1.35 µM, the IC50 [10] was 60.4 ± 3.54 µM and the “intracellular O2•-, times higher” value ([11]; IC50, 1 h) was 1.25 fold. For the same molecule, the “intracellular O2•-, times higher” value ([11]; IC50, 4 h) was 1.23 fold, the “intracellular O2•-, fold higher” value ([11]; IC50, 24 h) was 1.11 fold and the “intracellular O2•-, times higher” value ([11]; ¼ IC50, 1 h) was 1.10 fold. The “intracellular O2•-, times higher” value ([11]; ¼ IC50, 4 h) was 1.10 fold, the “intracellular O2•-, times higher” value ([11]; ½ IC50, 1 h) was 1.22 fold and the “intracellular O2•-, times higher” value ([11]; ½ IC50, 4 h) was 1.16 fold. The “intracellular O2•-, fold higher” value ([11]; ½ IC50, 24 h) was 1.10 fold, the “MDA level, times higher” value ([12]; IC50, 1 h) was 1.45 fold and the “MDA level, fold higher” value ([12]; IC50, 4 h) was 1.45 fold. For the same molecule, the “MDA level, times higher” value ([12]; IC50, 24 h) was 1.61 fold, the “MDA level, times higher” value ([12]; ¼ IC50, 1 h) was 1.23 fold and the “MDA level, times higher” value ([12]; ¼ IC50, 24 h) was 1.11 fold. The “MDA level, times higher” value ([12]; ½ IC50, 1 h) was 1.18 fold, the “MDA level, fold higher” value ([12]; ½ IC50, 4 h) was 1.18 fold and the “MDA level, times higher” value ([12]; ½ IC50, 24 h) was 1.20 fold. The “intracellular RONS, fold vs untreated control” value ([13]; conc. = IC50, 1 h) was 1.25 fold, the “intracellular RONS, fold vs untreated control” value ([13]; conc. = IC50, 4 h) was 1.11 fold and the “intracellular RONS change” value ([13]; conc. = IC50, 24 h) was “decrease of RONS”. For the same molecule, the “intracellular RONS, fold higher” value ([13]; conc. = ½ IC50, 1 h) was 1.12 fold, the “intracellular O2•-, times higher” value ([14]; IC50, 1 h) was 1.11 fold and the “intracellular O2•-, times higher” value ([14]; IC50, 4 h) was 1.10 fold. The “intracellular O2•-, times higher” value ([14]; IC50, 24 h) was 1.25 fold, the “intracellular O2•-, fold higher” value ([14]; ¼ IC50, 24 h) was 1.27 fold and the “intracellular O2•-, times higher” value ([14]; ½ IC50, 1 h) was 1.10 fold. For the same molecule, the “intracellular O2•-, times higher” value ([14]; ½ IC50, 4 h) was 1.10 fold, the “intracellular O2•-, times higher” value ([14]; ½ IC50, 24 h) was 1.32 fold and the “MDA level, times higher” value ([15]; IC50, 4 h) was 1.27 fold. The “MDA level, fold higher” value ([15]; IC50, 24 h) was 1.45 fold, the “MDA level, times higher” value ([15]; highest concentration (IC50), 1 h) was 1.18 fold and the “MDA level, times higher” value ([15]; ¼ IC50, 4 h) was 1.16 fold. For the same molecule, the “MDA level, times higher” value ([15]; ½ IC50, 4 h) was 1.18 fold, the “MDA level, fold higher” value ([15]; ½ IC50, 24 h) was 1.15 fold and the “intracellular RONS, times higher” value ([16]; conc. = IC50, 1 h) was 1.21 fold. For the same molecule, the “intracellular RONS, times lower” value ([16]; conc. = IC50, 24 h) was 1.30 fold.

— article PMC11796312, “Multifunctional, Fluorene‐Based Modulator of Cholinergic and GABAergic Neurotransmission as a Novel Drug Candidate for Palliative Treatment of Alzheimer's Disease” (Angewandte Chemie (International Ed. in English), 2024)
